A word on the EC50: it is the concentration that produces a half-maximal response. A low value points to an effect from little substance. Broadly, the CC50 is the concentration at which the toxic effect on the cells reaches its halfway point.

The test system of series [1] is DENV-1 (02-20 strain). The series is described as follows: Plaque assay, EC50 against DENV-1 (fourth screening). The series is classed as cell-based, Dengue virus. The following applies: compounds; for EC50: Dengue virus, DENV1, against DENV-1, plaque assay, Reed and Muench method; for SI: selectivity index from CC50 and EC50.
The next series is described as follows: MTT cytotoxicity assay. The series is classed as cell-based. The following applies: human, compounds, A549 cells, 3-day incubation. How it is done:
Human lung carcinoma cells (A549) and baby hamster kidney cells (BHK-21) were maintained in Eagle’s minimum essential medium (EMEM; Life Technologies, Carlsbad, CA, United States) supplemented with 10% fetal bovine serum (FBS; JR Scientific, Woodland, CA, United States), penicillin, and streptomycin sulfate (Nacalai Tesque, Kyoto, Japan) at 37°C with 5% CO2. Hybridoma-producing anti-E antibody (HB-112) was maintained in RPMI 1640 medium (Life Technologies, Carlsbad, CA, United States) supplemented with 10% FBS and antibiotics at 37°C with 5% CO2.
Cell viability was assessed by 3-(4,5-dimethylthiazol-2-yl)-2,5-diphenyltetrazolium bromide (MTT) assay. A549 cells were cultured in a 96-well plate with the selected compound (0–10 μM) or extract (0–100 μg/mL). After a 3-day incubation, 30 μL of 0.5% MTT solution was added to each well. After incubation for 3 h, the supernatant was replaced with 100 μL of methanol with 1% Triton X-100, and then vortexed to dissolve the formazan. Absorbance at 565 nm and reference at 655 nm were measured using a microplate reader (Berthold Technologies, Bad Wildbad, Germany). The half-maximal cytotoxicity concentration (CC50) was calculated using the Reed and Muench method ([Reed and Muench, 1938]).
In general terms: Formazan colour is commonly taken as a measure of viable cells.

For series [2], the system named is DENV-1 (02-20 strain). Nature of the series: Virus titer by plaque assay in infected A549 cells, DENV-1. Particulars: 10 μM, MOI 0.01, supernatant 72 hpi. The series is classed as cell-based, Dengue virus. The method, then:
(§1) The viruses used in this study included DENV-1 (02-20 strain) ([Tajima et al., 2006]), DENV-2 (16681 strain), DENV-3 (09-59 strain), and DENV-4 (09-48 strain). The strains were cultured in Vero cells, and stored at -80°C. Dengue virus titer was determined by plaque assay as summarized below.
(§2) Baby hamster kidney-21 cells were cultured in a 12-well plate and infected with serial dilutions of virus suspension, then incubated at 37°C for 1 h. At 1 hpi, cells were incubated in EMEM containing 2% FBS and 1% methylcellulose. After 5 days of incubation, the cells were fixed with paraformaldehyde and stained with methylene blue. Virus titer was calculated as plaque-forming units (PFU)/mL. The half-maximal effective concentration (EC50) against each virus was calculated using the Reed and Muench method.
(§3) FIGURE 1 Hirsutine inhibits replication of dengue virus serotypes DENV-1–4. (A) Structural formula of hirsutine. (B) Hirsutine inhibits viral replication of all four serotypes. A549 cells were infected with DENV-1–4 at a multiplicity of infection (MOI) of 0.01 in the presence of 10 μM hirsutine. Cell culture supernatants were collected 72 hpi, and viral titers were determined by plaque assay. All data were normalized to their control (0 μM of hirsutine).

A further series concerns DENV-2 (16681 strain). Nature of the series: Virus titer by plaque assay in infected A549 cells, DENV-2. Type of series: cell-based, Dengue virus. Particulars: 10 μM, MOI 0.01, supernatant 72 hpi. The method, then: as §1, §2, §3
The next series concerns DENV-3 (09-59 strain). Nature of the series: Virus titer by plaque assay in infected A549 cells, DENV-3. The series is classed as cell-based, Dengue virus. The following applies: 10 μM, MOI 0.01, supernatant 72 hpi. The method, then: as §1, §2, §3
In a further series the test system is DENV-4 (09-48 strain). The series is described as follows: Virus titer by plaque assay in infected A549 cells, DENV-4. Type of series: cell-based, Dengue virus. Particulars: 10 μM, MOI 0.01, supernatant 72 hpi. How it is done:
as §1, §2, §3

Series [3] has as its system DENV-1. Nature of the series: Time-of-drug-addition assay. The series is classed as cell-based, Dengue virus. The following applies: 10 μM added at 0, 2, 4, 6, 8, 12, 18 hpi; A549, MOI 1.0; titer at 24 hpi. How it is done:
Next, the cells were rinsed twice with phosphate-buffered saline, and fresh medium was added. At 0, 2, 4, 6, 8, 12, and 18 hpi, hirsutine at a final concentration of 10 μM was added to the infected cells. At 24 hpi, the cell culture supernatant was collected, and viral titer was assessed by plaque assay.
(§4) FIGURE 2 Hirsutine inhibits the late stage of the dengue virus lifecycle. (A) Time-of-drug-addition assay. Hirsutine (10 μM) was added at 0, 2, 4, 6, 8, 12, and 18 h post-DENV-1 infection. After 24 h, virus titers in the culture supernatant were analyzed by plaque assay. (B) Time-of-drug-elimination assay. Hirsutine (10 μM) was treated for 0–2, 0–4, and 0–6 h post-DENV-1 infection. After 24 h, virus titers in the culture supernatant were analyzed by plaque assay. ^∗p < 0.05. […] DMSO, dimethyl sulfoxide; hpi, hours post-infection; and PFU, plaque-forming units.

Series [4] has as its system DENV-1. The series is described as follows: Time-of-drug-elimination assay. Type of series: cell-based, Dengue virus. Particulars: 10 μM, A549, MOI 1.0, titer at 24 hpi. How it is done:
Next, the cells were rinsed with phosphate-buffered saline twice, and fresh medium containing 10 μM hirsutine was added. At 2, 4, and 6 hpi, the cells were rinsed with phosphate-buffered saline twice and fresh medium was added. At 24 hpi, the cell culture supernatant was collected, and viral titer was measured by plaque assay.
as §4

Series [5] relates to DENV-NS3 protein expression, DENV-1. The series is described as follows: Western blot of DENV-NS3 protein in DENV-1-infected A549 cells. The series is classed as cell-based, Dengue virus. The following applies: MOI 0.1 and 1.0, 18 hpi. How it is done:
Western blotting was performed as described previously ([Hishiki et al., 2014]). Briefly, DENV-1-infected A549 cells were co-cultured with 10 μM hirsutine, 100 μM ribavirin, or 10 μM bromocriptine. Protein samples were separated by SDS-PAGE and transferred to polyvinylidene fluoride blotting membranes (GE Healthcare, Little Chalfont, United Kingdom). Anti-NS3 rabbit polyclonal antibodies (GTX124252; GeneTex, Irvine, CA, United States) and anti-glyceraldehyde-3-phosphate dehydrogenase (GAPDH) mouse monoclonal antibodies (MAB374; Millipore, Billerica, MA, United States) were used as primary antibodies.
A549 cells were infected with DENV-1 at a MOI of 0.1 and 1.0 in the presence of 10 μM hirsutine (Hi), 100 μM ribavirin (Ri), or 10 μM bromocriptine (Br). Cell lysate was collected 18 h post-infection, and DENV-NS3 (top) and GAPDH (bottom) protein expression levels were assessed by Western blot.
In general terms: In western blotting, separated proteins are transferred to a membrane and probed.

Series [6] deals with influenza A virus (subtype H3N2). Also on record: method as in Takayama et al., 1997; Tietze and Zhou, 1999. Particulars: ref Takayama et al., 1997, Tietze and Zhou, 1999; cited from earlier work.
For series [7], the system named is DGL2 and DGL2-mut DENV-1 replicon. Nature of the series: Transient subgenomic reporter replicon assay (Gaussia luciferase). Particulars: 10 μM, A549 cells. Background: A replicon is a self-replicating genome or part of one, used to study replication in cells.
Method: A549 cells were cultured in a 24-well plate and transfected with DGL2 and DGL2-mut using X-tremeGENE HP DNA transfection reagent (Roche, Basel, Switzerland); 10 μM of hirsutine was added at baseline. The cell culture medium was collected and replaced with fresh medium containing 10 μM of hirsutine every 24 h. The Gaussia luciferase activity in the culture medium was measured using a microplate reader.
(A) Schematic representation of the replicon system, which uses DGL2 and DGL2-mut. DGL2-mut was inserted in non-replicative mutation into RNA-dependent RNA polymerase (RdRp). CMVp, cytomegalovirus promoter; Gluc, secretory Gaussia luciferase; IRES, internal ribosome entry site; GAA, mutation in the active center for RdRp; and Rib, ribozyme sequence. (B) Replicon plasmids DGL2 and DGL2-mut were transfected to A549 cells in the presence of 10 μM hirsutine. After 24 and 72 h, luciferase activity in the culture supernatant was analyzed. Each data point represents the mean ± standard deviation from triplicate experiments.

Consider `C[C@H]1CC[C@@]2(OC1)O[C@H]1C[C@H]3[C@@H]4CC[C@@H]5C[C@@H](O[C@@H]6O[C@H](CO)[C@H](O)[C@H](O)[C@H]6O[C@@H]6O[C@H](CO)[C@@H](O)[C@H](O)[C@H]6O)CC[C@]5(C)[C@H]4CC[C@]3(C)[C@H]1[C@@H]2C` [Timosaponin-AIII], for which, in the series with DENV-1 (02-20 strain) [1], a half-maximal response (EC50) required 1700 nM and the SI is more than 5.9. Moreover, the CC50 at 3 day in the series “MTT cytotoxicity assay” was more than 10000 nM.

In the case of `CC[C@H]1CN2CCc3c([nH]c4ccccc34)[C@H]2C[C@@H]1/C(=C\OC)C(=O)OC` [Hirsutine], in the series with DENV-1 (02-20 strain) [1], the EC50 turned out to be 1970 nM. The same compound yielded an SI in the series with DENV-1 (02-20 strain) [1] of more than 5.3. Besides, in the series “MTT cytotoxicity assay”, the CC50 at 3 day was more than 10000 nM. The virus titer entry in the series with DENV-1 (02-20 strain) [2], in the series with DENV-2 (16681 strain), in the series with DENV-3 (09-59 strain) and in the series on DENV-4 (09-48 strain) was “decreased” in each case. In the series with DENV-1 [3], the “virus titer in culture supernatant, time-of-drug-addition” value is recorded as “reduced the virus titer significantly up to 12 hpi”. For the same compound, the “virus titer in culture supernatant, time-of-drug-elimination” value with DENV-1 [4] (2-h treatment) is “did not decrease the virus titer”; in the series on DENV-1 [4] (4-h treatment) it was “did decrease”. Moreover, the “NS3 protein expression levels” value in series [5] (10 μM) is listed as “did not change”. In addition, the “EC50 more effective than ribavirin” value in [6] is on record as “over 10 fold”. Besides, the “Gaussia luciferase activity in culture supernatant” value in [7] (DGL2, 24 h and 72 h post-transfection) is reported as “did not reduce luciferase activity levels”; in [7] (non-replicate DGL2-mut, 24 h and 72 h post-transfection), “did not reduce luciferase activity levels”.

Regarding `NC(=O)c1ncn([C@@H]2O[C@H](CO)[C@@H](O)[C@H]2O)n1` [ribavirin], the “NS3 protein expression levels” value in series [5] (100 μM) is recorded as “decreased significantly”.

For the compound `CC(C)C[C@H]1C(=O)N2CCC[C@H]2[C@]2(O)O[C@](NC(=O)[C@@H]3C=C4c5cccc6[nH]c(Br)c(c56)C[C@H]4N(C)C3)(C(C)C)C(=O)N12` [bromocriptine], the “NS3 protein expression levels” value in series [5] (10 μM) is “decreased significantly”.

(Values after paper PMC5582420, “Hirsutine, an Indole Alkaloid of Uncaria rhynchophylla, Inhibits Late Step in Dengue Virus Lifecycle” (Frontiers in Microbiology, 2017).)
